Assay results as given in patent US20220273659A1, “HETEROCYCLIC COMPOUNDS AS KINASE INHIBITORS” (NUVATION BIO INC., priority 2019, published 2022).

How the values were obtained:
CDK2 (cyclin E1) = biological target: T1, CDK2 (cyclin E1) (Homo sapiens, UniProt P24941); assay: LanthaScreen Eu Kinase Binding Assay; details: read-out: CDK2/E IC50
T1 construct: purchased Invitrogen Life Technologies (assay service)
Description: 0.16 μL of 100×test compound in 100% DMSO (at specific solutions) were mixed with 3.84 μL of Kinase Buffer (50 mM HEPES pH 7.5, 0.01% BRIJ-35, 10 mM MgCl2, 1 mM EGTA), 8.0 μL of 2× Kinase (2.5 nM)/Antibody (Eu-anti-GST, 2 nM) Mixture and 4.0 μL of 4×Tracer (Tracer 236, 100 nM). The plates were shaken for 30 seconds, and incubated for 60 minutes at room temperature. The plates were read on fluorescence plate reader with Dual emission at 615 nm and 665 nm.
The following equations were used for LanthaScreen Eu Kinase Binding Assay Data Analysis. Percent inhibition (100-% activity) was fitted to the “four-parameter logistic model” in XLfit for determination of IC50 values.

CDK12 (cyclin K) = biological target: T2, CDK12 (cyclin K) (Homo sapiens, UniProt Q9NYV4); assay: KinaseProfiler radiometric protein kinase assay; format: biochemical
T2 construct: purchased Eurofins Pharma Discovery (assay service)
T2 sequence (Q9NYV4 whole entry): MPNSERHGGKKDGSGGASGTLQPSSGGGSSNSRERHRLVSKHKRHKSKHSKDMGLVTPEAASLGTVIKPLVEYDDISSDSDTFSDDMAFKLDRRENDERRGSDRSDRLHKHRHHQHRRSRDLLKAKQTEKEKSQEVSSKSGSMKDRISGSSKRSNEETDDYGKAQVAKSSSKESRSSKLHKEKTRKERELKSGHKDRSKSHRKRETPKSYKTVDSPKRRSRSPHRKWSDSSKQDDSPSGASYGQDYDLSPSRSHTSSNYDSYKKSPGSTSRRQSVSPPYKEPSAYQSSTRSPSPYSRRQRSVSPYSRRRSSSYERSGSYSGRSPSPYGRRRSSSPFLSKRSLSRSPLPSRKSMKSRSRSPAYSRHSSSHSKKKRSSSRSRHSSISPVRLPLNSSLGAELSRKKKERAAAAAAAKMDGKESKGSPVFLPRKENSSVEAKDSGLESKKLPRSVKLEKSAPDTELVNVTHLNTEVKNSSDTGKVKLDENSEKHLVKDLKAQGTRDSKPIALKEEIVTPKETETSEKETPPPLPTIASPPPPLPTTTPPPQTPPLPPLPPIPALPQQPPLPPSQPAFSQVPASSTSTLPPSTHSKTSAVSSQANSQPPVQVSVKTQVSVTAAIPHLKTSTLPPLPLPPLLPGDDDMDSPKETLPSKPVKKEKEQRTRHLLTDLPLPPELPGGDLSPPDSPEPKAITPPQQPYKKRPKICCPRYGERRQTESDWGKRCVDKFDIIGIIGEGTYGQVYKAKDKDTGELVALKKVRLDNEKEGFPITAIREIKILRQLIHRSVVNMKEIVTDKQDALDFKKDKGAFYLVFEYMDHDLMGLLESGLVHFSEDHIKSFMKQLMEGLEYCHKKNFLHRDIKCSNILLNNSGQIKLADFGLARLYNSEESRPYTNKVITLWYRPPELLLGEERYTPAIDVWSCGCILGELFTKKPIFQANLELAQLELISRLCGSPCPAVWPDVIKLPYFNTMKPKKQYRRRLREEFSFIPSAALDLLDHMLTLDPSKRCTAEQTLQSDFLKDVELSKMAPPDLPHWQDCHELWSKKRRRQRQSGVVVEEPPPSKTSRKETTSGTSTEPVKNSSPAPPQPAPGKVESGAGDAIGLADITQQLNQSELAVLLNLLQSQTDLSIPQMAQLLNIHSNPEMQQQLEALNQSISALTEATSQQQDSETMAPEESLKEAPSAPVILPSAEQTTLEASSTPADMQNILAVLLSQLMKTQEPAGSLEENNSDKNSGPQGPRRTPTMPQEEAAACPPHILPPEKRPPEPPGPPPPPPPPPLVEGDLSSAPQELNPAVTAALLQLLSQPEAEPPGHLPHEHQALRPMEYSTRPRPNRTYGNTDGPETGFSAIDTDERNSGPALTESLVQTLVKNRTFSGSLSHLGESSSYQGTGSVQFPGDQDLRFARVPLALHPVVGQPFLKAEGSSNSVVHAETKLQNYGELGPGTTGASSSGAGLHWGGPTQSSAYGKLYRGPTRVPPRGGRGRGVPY
T2 sequence (O75909 whole entry partner): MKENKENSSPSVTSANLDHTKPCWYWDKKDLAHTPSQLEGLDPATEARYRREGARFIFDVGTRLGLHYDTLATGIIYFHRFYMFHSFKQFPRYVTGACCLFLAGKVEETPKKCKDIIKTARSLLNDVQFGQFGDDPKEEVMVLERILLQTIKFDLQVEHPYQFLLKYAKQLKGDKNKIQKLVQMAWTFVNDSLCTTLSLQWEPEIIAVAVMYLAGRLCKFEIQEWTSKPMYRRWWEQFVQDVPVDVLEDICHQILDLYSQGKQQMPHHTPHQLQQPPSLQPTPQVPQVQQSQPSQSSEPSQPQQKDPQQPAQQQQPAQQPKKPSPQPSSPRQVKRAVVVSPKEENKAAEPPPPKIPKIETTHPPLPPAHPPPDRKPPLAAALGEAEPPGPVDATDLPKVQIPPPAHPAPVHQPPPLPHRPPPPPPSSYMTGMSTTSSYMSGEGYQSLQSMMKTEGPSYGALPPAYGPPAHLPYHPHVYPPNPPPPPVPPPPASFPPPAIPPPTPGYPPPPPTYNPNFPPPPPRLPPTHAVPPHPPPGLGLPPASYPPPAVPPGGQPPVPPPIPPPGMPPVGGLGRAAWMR
Description: IC50 values of compounds against CDK12 (cyclin K) were determined by KinaseProfiler™ radiometric protein kinase assay at Eurofins Pharma Discovery (Dundee, UK). Compounds were prepared to 50× final assay concentration in 100% DMSO. This working stock of the compound was added to the assay well as the first component in each reaction. CDK12/Cyclin K was diluted in buffer (20 mM TRIS, 0.2 mM EDTA, 0.1%-mercaptoethanol, 0.01% Brij-35, 5% glycerol, mg/ml BSA) prior to addition to the reaction mix. CDK12/Cyclin K was incubated with 20 mM Tris/HCl pH 8.5, 0.2 mM EDTA, 300 μM SRSRSRSRSRSRSR, 10 mM Magnesium acetate and [γ-^33P-ATP] (specific activity and concentration as required). The reaction was initiated by the addition of the Mg/ATP mix. After incubation for 120 minutes at room temperature, the reaction was stopped by the addition of phosphoric acid to a concentration of 0.5%. 10 μl of the stopped reaction was spotted onto a P30 filtermat and washed four times for 4 minutes in 0.425% phosphoric acid and once in methanol prior to drying and scintillation counting. Results were calculated as a percentage of the mean kinase activity in positive control samples. Data were fitted in XLfit for determination of IC50 values.

- IC50 (CDK2 (cyclin E1)): 0.074 µM
- IC50 (CDK12 (cyclin K)): > 10 µM
SMILES: N#Cc1cc2cnc(Nc3ccc4c(c3)CCNC4)nc2n(C2CCCC2)c1=O [Compound No. 31, 8-cyclopentyl-7-oxo-2-((1,2,3,4-tetrahydroisoquinolin-6-yl)amino)-7,8-dihydropyrido[2,3-d]pyrimidine-6-carbonitrile]
